Measured values reported in patent publication US20240286998A1, “F[…], ANALOGUES THEREOF, AND METHODS USING SAME” (Saint Joseph's University, priority 2021, published 2024).
Where two headings read alike, the source gives them in different places.

Assays:
[1] = biological target: 5-HT2C (Homo sapiens (Human), UniProt P28335); assay: 5-HT2C Gq-mediated calcium flux functional assay; assay type: cell-based
[2] = biological target: Serotonin 5-HT2A (human) (Homo sapiens (Human), UniProt P28223); assay: 5-HT2A receptor binding, [3H]-ketanserin competition in membrane fractions; details: for 5-HT2A pKi ± SEM: 1 nM [3H]-ketanserin, Cheng-Prusoff, N=1-3
[3] = biological target: 5-HT2A (Homo sapiens (Human), UniProt P28223); assay: 5-HT2A Gq-mediated calcium flux functional assay; assay type: cell-based
[4] = biological target: 5-HT2B (Homo sapiens (Human), UniProt P41595); assay: 5-HT2B Gq-mediated calcium flux functional assay; assay type: cell-based
5-HT2B, sequence (P41595 whole entry): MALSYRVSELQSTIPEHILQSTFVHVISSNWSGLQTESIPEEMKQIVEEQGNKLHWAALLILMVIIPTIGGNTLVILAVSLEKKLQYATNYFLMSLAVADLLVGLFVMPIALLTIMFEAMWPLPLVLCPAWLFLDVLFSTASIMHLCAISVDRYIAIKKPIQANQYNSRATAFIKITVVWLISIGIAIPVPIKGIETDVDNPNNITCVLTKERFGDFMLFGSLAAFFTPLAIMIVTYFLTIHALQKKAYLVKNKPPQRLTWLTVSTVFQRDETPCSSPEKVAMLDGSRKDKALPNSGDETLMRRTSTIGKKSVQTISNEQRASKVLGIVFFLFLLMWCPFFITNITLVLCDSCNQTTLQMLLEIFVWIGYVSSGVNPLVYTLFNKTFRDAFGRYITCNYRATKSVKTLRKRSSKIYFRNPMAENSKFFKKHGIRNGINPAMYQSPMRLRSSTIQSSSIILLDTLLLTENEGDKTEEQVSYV

[5] = biological target: 5-HT1A (Homo sapiens (Human), UniProt P08908); assay: 5-HT1A Gi/o-mediated cAMP inhibition, GloSensor assay; assay type: cell-based; details: for 5-HT1A-cAMP Emax (% 5-HT): cAMP inhibition, 0.2 μM isoproterenol, IA = Inactive
[6] = IA = Inactive, N=1-3, read-out: 5-HT2A-Ca2+ FLUX pEC50 (converted)
[7] = IA = Inactive, N=1-3, read-out: 5-HT2B-Ca2+ FLUX pEC50 (converted)

5-HT2C, sequence (P28335 whole entry, looked up): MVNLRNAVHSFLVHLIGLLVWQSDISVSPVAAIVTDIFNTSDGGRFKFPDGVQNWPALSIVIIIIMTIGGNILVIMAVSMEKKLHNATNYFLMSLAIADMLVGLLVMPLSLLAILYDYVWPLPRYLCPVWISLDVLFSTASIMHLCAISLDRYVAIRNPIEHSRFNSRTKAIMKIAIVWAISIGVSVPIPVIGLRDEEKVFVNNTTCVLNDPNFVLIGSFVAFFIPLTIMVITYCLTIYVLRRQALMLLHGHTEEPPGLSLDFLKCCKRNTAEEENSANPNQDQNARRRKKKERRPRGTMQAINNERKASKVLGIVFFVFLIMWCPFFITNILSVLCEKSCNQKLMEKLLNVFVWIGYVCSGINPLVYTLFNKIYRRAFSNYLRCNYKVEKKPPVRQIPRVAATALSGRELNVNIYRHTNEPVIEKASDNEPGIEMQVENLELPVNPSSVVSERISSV

Structure (SMILES)	EC50 [1] [nM]	5-HT2C-Ca2+ FLUX Emax (% 5-HT) ([1]; IA = Inactive, N=1-3)	5-HT2A pKi ± SEM [2]	EC50 [3] [nM]	5-HT2A-Ca2+ FLUX Emax (% 5-HT) ([3]; IA = Inactive, N=1-3)	EC50 [4] [nM]	5-HT2B-Ca2+ FLUX Emax (% 5-HT) ([4]; IA = Inactive, N=1-3)	EC50 [5] [nM]	5-HT1A-cAMP Emax (% 5-HT) [5] [% 5-HT]	EC50 ([1]; IA = Inactive, N=1-3, read-out: 5-HT2C-Ca2+ FLUX pEC50 (converted)) [nM]	EC50 [3, 6] [nM]	EC50 [4, 7] [nM]	Ki [2] [nM]
CCN(C)CCc1c[nH]c2cc(F)c(Cl)cc12 [compound 179, 2-(5-chloro-6-fluoro-1H-indol-3-yl)-N-ethyl-N-methylethan-1-amine]	22.9	95.5 ± 1.0	6.93	10.7	79.3 ± 0.7	10.7	67.8 ± 0.6						
CC(C)N(CCc1c[nH]c2ccc(F)cc12)C1CCC1 [compound 40, N-(2-(5-fluoro-1H-indol-3-yl)ethyl)-N-isopropylcyclobutanamine]	112	94.9 ± 2.0	6.06 ± 0.05	0.891	102.5 ± 2.0	1.1	106.7 ± 1.5	66.1	102.1 ± 1.7				
CCC(C)N(CCc1c[nH]c2ccc(F)cc12)C1CC1 (stereo not drawn) [compound 172, N-(sec-butyl)-N-(2-(5-fluoro-1H-indol-3-yl)ethyl)cyclopropanamine]	151	82.3 ± 1.7	6.47	3.98	94.0 ± 0.6	6.46	93.5 ± 0.8						
CN(CCc1c[nH]c2ccc(F)cc12)C1CSC1 [compound 20, N-(2-(5-fluoro-1H-indol-3-yl)ethyl)-N-methylthietan-3-amine]		55.0 ± 2.8			61.8 ± 3.2		17.3 ± 1.1	794	93.1 ± 2.5	468	28.8	2.4	
CCCN(CC)CCc1c[nH]c2ccc(F)cc12 [Example 6, N-ethyl-N-(2-(5-fluoro-1H-indol-3-yl)ethyl)propan-1-amine]	1.78	111.7 ± 2.5	6.06 ± 0.13	0.776	103.5 ± 0.8	1.1	101.2 ± 0.7	49	90.5 ± 1.8				
Fc1ccc2[nH]cc(CCN(C3CCC3)C3CC3)c2c1 [compound 173, N-cyclopropyl-N-(2-(5-fluoro-1H-indol-3-yl)ethyl)cyclobutanamine]	302	80.4 ± 1.2	6.58	7.24	87.4 ± 0.7	17.8	82.8 ± 0.8						
C#CCN(CCc1c[nH]c2ccc(F)cc12)C(C)CC (stereo not drawn) [compound 176, N-(2-(5-fluoro-1H-indol-3-yl)ethyl)-N-(prop-2-yn-1-yl)butan-2-amine]	191	99.6 ± 1.5	5.89	40.7	97.8 ± 1.1	28.8	103.0 ± 0.6						
C=CCN(CC)CCc1c[nH]c2ccc(F)cc12 [compound 36, N-ethyl-N-(2-(5-fluoro-1H-indol-3-yl)ethyl)prop-2-en-1-amine]	17	101.5 ± 1.9	6.13 ± 0.08	1.2	104.8 ± 2.0	1.74	104.5 ± 2.0	56.2	98.4 ± 1.5				
CC(C)N(C)CCc1c[nH]c2ccc(F)cc12 [Example 2, N-(2-(5-fluoro-1H-indol-3-yl)ethyl)-N-methylpropan-2-amine]	21.9	64.6 ± 1.7	6.36 ± 0.003	1.95	95.1 ± 0.8	3.31	68.6 ± 1.7	1820	93.2 ± 4.7				
C#CCN(CCC)CCc1c[nH]c2c(F)cccc12 [compound 180, N-(2-(7-fluoro-1H-indol-3-yl)ethyl)-N-propylprop-2-yn-1-amine]	631	56.5 ± 2.1	5.75	79.4	80.7 ± 1.6	38	92.7 ± 1.2						
C=CCN(CCc1c[nH]c2ccc(F)cc12)C(C)CC (stereo not drawn) [compound 16, N-allyl-N-(2-(5-fluoro-1H-indol-3-yl)ethyl)butan-2-amine]	49	84.3 ± 3.4		0.871	103.4 ± 1.8	2.09	97.4 ± 1.7	166	94.2 ± 2.2				1660
CCCN(CC)CCc1c[nH]c2c(F)c(F)c(F)cc12 [compound 165, N-ethyl-N-[2-(5,6,7-trifluoro-1H-indol-3-yl)ethyl]propan-1-amine]	38.9	102.8 ± 1.7	6.69	4.57	103.0 ± 0.8	7.41	102.4 ± 0.8						
CCCN(CC)CCc1c[nH]c2c(F)c(F)ccc12 [compound 82, N-(2-(6,7-difluoro-1H-indol-3-yl)ethyl)-N-ethylpropan-1-amine]	195	89.6 ± 1.7	6.52	10.5	90.4 ± 0.7	66.1	86.3 ± 0.8						
C=CCN(CCc1c[nH]c2ccc(F)cc12)C(C)C [Example 11, N-(2-(5-fluoro-1H-indol-3-yl)ethyl)-N-isopropylprop-2-en-1-amine]	20.4	101.5 ± 2.8		0.617	105.4 ± 2.1	0.794	98.8 ± 1.6	151	95.5 ± 1.7				
CCCN(CC#N)CCc1c[nH]c2c(F)cccc12 [compound 181, 2-((2-(7-fluoro-1H-indol-3-yl)ethyl)(propyl)amino)acetonitrile]			5.75		68.7 ± 1.7		36.8 ± 0.7				58.9	295	
CCN(C)CCc1c[nH]c2c(Br)cc(F)cc12 [compound 174, 2-(7-bromo-5-fluoro-1H-indol-3-yl)-N-ethyl-N-methylethan-1-amine]	13.2	39.9 ± 1.1	6.42	18.6	38.2 ± 1.4								
CCN(C)CCc1c[nH]c2cc(C)c(F)cc12 [compound 175, N-ethyl-2-(5-fluoro-6-methyl-1H-indol-3-yl)-N-methylethan-1-amine]	102	51.2 ± 2.0	5.96	6.76	48.6 ± 2.8								
CCCN(CC)CCc1c[nH]c2cc(Cl)c(F)cc12 [compound 37, N-(2-(6-chloro-5-fluoro-1H-indol-3-yl)ethyl)-N-ethylpropan-1-amine]			6.04 ± 0.05										
